Data taken from the supplement of paper PMC10307832.

How the values were obtained:
Test in all cases: relative viability (nuclei count vs DMSO), 5 days (fraction); higher = more cells survive
[1] = compound: CCN(CCO)CCCC(C)Nc1ccnc2cc(Cl)ccc12 [Hydroxychloroquine] + CC(=O)c1c(C)c2cnc(Nc3ccc(N4CCNCC4)cn3)nc2n(C2CCCC2)c1=O [Palbociclib] (partner 0.5 µM)
Outline: (§1)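 Relative viability equals treated-well nuclei counts divided by vehicle-well nuclei counts. Counts came from 4× images of lung cancer cell lines grown in 1536-well plates for 5 days after pin-tool dosing on the day after seeding. Dosing used one drug alone or a fixed anchor-drug dose plus five library-drug doses (not always all listed) in √10 steps, and values are medians of duplicate plates.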

[2] = compound: CCN(CCO)CCCC(C)Nc1ccnc2cc(Cl)ccc12 [Hydroxychloroquine] + CS(=O)(=O)N1CCN(Cc2cc3nc(-c4cccc5[nH]ncc45)nc(N4CCOCC4)c3s2)CC1 [Pictilisib] (partner 1 µM)
Outline: as §1

[3] = compound: CCN(CCO)CCCC(C)Nc1ccnc2cc(Cl)ccc12 [Hydroxychloroquine] + N=C(N)NC(=N)NCCc1ccccc1 [Phenformin] (partner 250 µM)
Outline: as §1

[4] = compound: CCN(CCO)CCCC(C)Nc1ccnc2cc(Cl)ccc12 [Hydroxychloroquine] + Nc1ncn([C@H]2C[C@H](O)[C@@H](CO)O2)c(=O)n1 [Decitabine] (partner 2 µM)
Outline: as §1

Cell Line | relative viability ([1]; first compound 0.5 µM) | relative viability ([1]; first compound 1.581 µM) | relative viability ([1]; first compound 5 µM) | relative viability ([1]; first compound 15.81 µM) | relative viability ([1]; first compound 50 µM) | relative viability ([2]; first compound 0.5 µM) | relative viability ([2]; first compound 1.581 µM) | relative viability ([2]; first compound 5 µM) | relative viability ([2]; first compound 15.81 µM) | relative viability ([2]; first compound 50 µM) | relative viability ([3]; first compound 0.5 µM) | relative viability ([3]; first compound 1.581 µM) | relative viability ([3]; first compound 5 µM) | relative viability ([3]; first compound 15.81 µM) | relative viability ([3]; first compound 50 µM) | relative viability ([4]; first compound 0.5 µM) | relative viability ([4]; first compound 1.581 µM) | relative viability ([4]; first compound 5 µM) | relative viability ([4]; first compound 15.81 µM) | relative viability ([4]; first compound 50 µM)
PC-14 | 0.481 | 0.545 | 0.535 | 0.554 | 0.394 | 0.7 | 0.687 | 0.683 | 0.595 | 0.78 | 0.676 | 0.573 | 0.551 | 0.595 | 0.601 | 0.248 | 0.149 | 0.214 | 0.231 | 0.201
NCI-H1437 | 0.291 | 0.328 | 0.328 | 0.295 | 0.336 | 0.341 | 0.49 | 0.412 | 0.421 | 0.439 | 0.304 | 0.316 | 0.31 | 0.297 | 0.31 | 0.56 | 0.617 | 0.587 | 0.562 | 0.636
NCI-H2170 | 0.379 | 0.401 | 0.415 | 0.4 | 0.421 | 0.327 | 0.294 | 0.282 | 0.284 | 0.333 | 0.427 | 0.413 | 0.435 | 0.427 | 0.417 | 0.438 | 0.449 | 0.396 | 0.438 | 0.457
NCI-H1648 | 0.277 | 0.264 | 0.266 | 0.211 | 0.288 |  |  |  |  |  |  |  |  |  |  | 0.51 | 0.447 | 0.512 | 0.518 | 0.484
LCLC-103H | 0.498 | 0.496 | 0.524 | 0.461 | 0.469 | 0.666 | 0.612 | 0.567 | 0.542 | 0.67 | 0.347 | 0.33 | 0.341 | 0.335 | 0.346 | 0.699 | 0.751 | 0.727 | 0.736 | 0.767
NCI-H460 | 0.129 | 0.148 | 0.149 | 0.115 | 0.227 | 0.37 | 0.266 | 0.366 | 0.406 | 0.352 | 0.506 | 0.533 | 0.577 | 0.518 | 0.635 | 0.431 | 0.528 | 0.441 | 0.563 | 0.559
SW 900 | 0.5 | 0.502 | 0.568 | 0.597 | 0.657 |  |  |  |  |  | 0.514 | 0.496 | 0.509 | 0.585 | 0.513 | 0.398 | 0.445 | 0.422 | 0.417 | 0.41
IA-LM |  |  |  |  |  | 0.296 | 0.357 | 0.361 | 0.433 | 0.338 |  |  |  |  |  |  |  |  |  | 
NCI-H1563 |  |  |  |  |  | 0.694 | 0.605 | 0.574 | 0.627 | 0.596 | 0.677 | 0.652 | 0.649 | 0.635 | 0.635 |  |  |  |  | 
NCI-H522 | 0.822 |  | 1.03 | 0.986 | 0.798 |  |  |  |  |  | 0.647 | 0.581 | 0.702 | 0.717 | 0.623 | 0.689 |  | 0.566 | 0.676 | 0.59
CAL-12T | 0.56 | 0.383 | 0.462 | 0.478 | 0.595 | 0.793 |  | 0.382 | 0.35 | 0.598 | 0.585 | 0.593 | 0.587 | 0.599 | 0.519 |  |  |  |  | 
